Molecules are shown by their SMILES. ≈ marks a conversion by molar mass, not a printed value. Bounds are passed on as bounds.

Series [1] has as its system E. coli ATCC 25922. In words: MIC/MBC testing (Example 5). The series is classed as cell-based.
The test system of series [2] is S. pyogenes MMX 404. Nature of the series: MIC/MBC testing (Example 5). The conditions noted are these: Streptococcus pyogenes, MMX404; Example 5; read-out: MIC. The format is cell-based.
Series [3] deals with S. aureus MMX 757. In words: MIC/MBC testing (Example 5). The series is classed as cell-based. As to conditions: Staphylococcus aureus, MMX757; Example 5; read-out: MIC.
For series [4], the system named is E. faecalis MMX 848. In words: MIC/MBC testing (Example 5). The format is cell-based. The conditions noted are these: Enterococcus faecalis, MMX848; Example 5; read-out: MIC.
The test system of series [5] is E. faecalis ATCC 29212. In words: MIC/MBC testing (Example 5). The format is cell-based. The conditions noted are these: Enterococcus faecalis, ATCC29212; Example 5; read-out: MIC.
In series [6] the test system is S. pneumoniae ATCC 49619. Nature of the series: MIC/MBC testing (Example 5). The series is classed as cell-based. The conditions noted are these: Streptococcus pneumoniae, ATCC49619; Example 5; read-out: MIC.
Series [7] relates to S. aureus ATCC 29213. Nature of the series: MIC/MBC testing (Example 5). The series is classed as cell-based. The conditions noted are these: Staphylococcus aureus, ATCC29213; Example 5; read-out: MIC.
Series [8] concerns Enterococcus faecalis (VSE). Nature of the series: Broth microdilution MIC, aerobic bacteria (Example 1). The series is classed as cell-based. As to conditions: isolate MMX 101 (ATCC 29212).
The subject of series [9] is Candida parapsilosis. Nature of the series: Broth microdilution MIC, yeast and fungi (Example 1). The format is cell-based.
Series [10] relates to Streptococcus pyogenes. In words: Broth microdilution MIC, aerobic bacteria (Example 1). The series is classed as cell-based. The conditions noted are these: isolate MMX 404.
Series [11] relates to Enterococcus faecalis (VRE). In words: microbe, parasite or virus in culture. As to conditions: Example 1; isolate MMX 848. The format is cell-based.
The subject of series [12] is Clostridium difficile. Nature of the series: Broth microdilution MIC, anaerobic bacteria (Example 1). The series is classed as cell-based. The conditions noted are these: Example 1.
Series [13] has as its system Klebsiella pneumoniae (KPC-2). The format is cell-based. The conditions noted are these: Example 1; isolate MMX 4683.
The test system of series [14] is Escherichia coli. In words: Broth microdilution MIC, aerobic bacteria (Example 1). The format is cell-based. The conditions noted are these: isolate MMX 102 (ATCC 25922).
The nature of series [15]: Compound precipitation in uninoculated solubility controls (Example 1). The series is classed as physicochemical. Set-up: key to precipitation observed (type): NA: not applicable (no precipitation observed); TRP: trace precipitate; DCP: distinct precipitate. As to the method:
Plates were stacked 3-4 high, covered with a lid on the top plate, placed in plastic bags, and incubated at 35° C. for approximately 16 to 20 hr (aerobes), 20 to 24 hr (Streptococcus), and 24 and 48 hr (fungi). Anaerobe plates were stacked, covered with a lid on the top plate, placed in a BD GasPak EZ Anaerobe Container System and incubated at 35° C. for 48 hr. Following incubation, the microplates were removed from the incubator and viewed from the bottom using a plate viewer. […] The MIC was read and recorded as the lowest concentration of drug that inhibited visible growth of the organism.

Series [16] concerns Staphylococcus aureus (MSSA). Nature of the series: Broth microdilution MIC, aerobic bacteria (Example 1). The series is classed as cell-based. The conditions noted are these: isolate MMX 100 (ATCC 29213).
Series [17] has as its system Pseudomonas aeruginosa. Described as above. As to conditions: Example 1; isolate MMX 1380. The format is cell-based.
The test system of series [18] is Streptococcus pneumoniae. The description is as above. The format is cell-based. As to conditions: Example 1; isolate MMX 1195 (ATCC 49619).
In series [19] the test system is Bifidobacterium bifidum. Nature of the series: Broth microdilution MIC, anaerobic bacteria (Example 1). The conditions noted are these: Example 1; isolate MMX 3965. The series is classed as cell-based.
Series [20] concerns Lactobacillus crispatus. The description is as above. The series is classed as cell-based. As to conditions: Example 1; isolate MMX 4147.
Series [21] has as its system Bifidobacterium longum. Described as above. The conditions noted are these: Example 1; isolate MMX 3968. The series is classed as cell-based.
The test system of series [22] is Aspergillus fumigatus. In words: Broth microdilution MIC, yeast and fungi (Example 1). The format is cell-based. The conditions noted are these: isolate MMX 5280 (ATCC MYA-3626).
Series [23] has as its system Lactobacillus jensenii. In words: Broth microdilution MIC, anaerobic bacteria (Example 1). The series is classed as cell-based. The conditions noted are these: Example 1; isolate MMX 4149.
In series [24] the test system is Bacteroides fragilis. Described as above. As to conditions: Example 1; isolate MMX 123 (ATCC 5285). The series is classed as cell-based.
Series [25] concerns Staphylococcus aureus (MRSA). Nature of the series: microbe, parasite or virus in culture. The series is classed as cell-based. As to conditions: Example 1; isolate MMX 757.
The subject of series [26] is Acinetobacter baumannii. In words: Broth microdilution MIC, aerobic bacteria (Example 1). As to conditions: Example 1; isolate MMX 1630. The format is cell-based.
Series [27] can be described thus: Bioavailability assay: VB110 and CBD decoupling analysis of intestinal contents (Example 2). The format is in vivo. As to conditions: mice, oral gavage 120 mg/kg VB110. On the procedure: In order to investigate the effectiveness of glycosylation to effect site-specific drug delivery, VB110 was administered to three mice by oral gavage and the animals sacrificed at 30, 60, and 90 minutes. Eight-week old male Swiss mice were fasted for 12 hours prior to administration of 120 mg/kg VB110 in 10% Ethanol USP, 10% Propylene Glycol USP, 0.05% Sodium Deoxycholate USP, 79.95% Saline USP. Following termination and tissue harvest, the intestinal contents were then extracted and analyzed by C18 reverse phase HPLC. […] This decoupling of VB110 is consistent with the large intestinal decoupling seen for sennoside beta-glycosides and is the result of secreted beta-glycosidases from the large intestinal microflora.

The compound `C[C@@H](O)[C@H]1C(=O)N2C(C(=O)O)=C(SCCN=CN)C[C@H]12` [Imipenem] yielded an MBC in series [1] (Escherichia coli, ATCC25922, Example 5, quality control MBC test) of 0.12 µg/mL (≈ 0.401 µM). For the same compound, the MIC in series [1] (Escherichia coli, ATCC25922, Example 5, read-out: MIC) is 0.12 µg/mL (≈ 0.401 µM); in series [2] it was not above 0.008 µg/mL; in series [3] it was 4 µg/mL (≈ 13.4 µM); in [4], 1 µg/mL (≈ 3.34 µM); in [5] it was 0.5 µg/mL (≈ 1.67 µM); in [6], 0.015 µg/mL (≈ 0.0501 µM). The MIC in series [7] amounted to 0.015 µg/mL (≈ 0.0501 µM). Moreover, in series [1] (ratios of 1-4 are indicative of bactericidal activity), the “MBC:MIC” value was 1.
Consider `C=C(C)[C@@H]1CCC(C)=C[C@H]1c1c(O[C@@H]2O[C@H](CO)[C@@H](O)[C@H](O)[C@H]2O)cc(CCCCC)cc1O[C@@H]1O[C@H](CO)[C@@H](O)[C@H](O)[C@H]1O` [VB110], for which the MIC in series [8], in series [10], in [11], in series [12] (isolate MMX 4381 (ATCC 00057)), in series [12] (isolate MMX 8330) and in [12] (isolate MMX 8333) was more than 256 µg/mL each time. Besides, the MIC in [13], in [14], in series [16], in series [17], in [18] and in [19] was more than 256 µg/mL each time. Also, the MIC in series [20], in series [21], in series [23], in series [24], in series [25] and in series [26] was more than 256 µg/mL in each case. In series [9] (24 and 48 hr, concentrations >16 μg/mL), the “inhibition of growth relative to the growth control” value is 50%. Also, the “MIC at 24 hr” value in series [9] (Example 1, 24 hr, isolate MMX 2323 (ATCC 22019)) is given as >256^2, μg/mL; in series [22] (24 hr) it was >256, μg/mL. Also, the “MIC at 48 hr” value in [9] (Example 1, 48 hr, isolate MMX 2323 (ATCC 22019)) was >256^2 μg/mL; in series [22] (48 hr), more than 256 µg/mL. In addition, the figures for the “precipitation observed (type)” value in [15] (MHB II) and in [15] (RPMI) were “none” and “TRP”, respectively. Moreover, in series [15] (RPMI), the “lowest concentration at which precipitation was observed” value was 32 µg/mL. Moreover, the “small intestinal contents (HPLC)” value in [27] (30, 60, and 90 minutes) is reported as “intact VB110, but no decoupled CBD”. Further, in series [27] (60 and 90 minute time points), the “large intestinal contents (HPLC)” value is “contained both VB110 and CBD”.

The values above are taken from patent US11207291B2, “Antimicrobial compositions comprising cannabinoids and methods of using the same” (Graphium Biosciences, Inc., priority 2017, dated 2021).
